Values quoted from earlier work in patent publication US20120172333A1, “PYRROLO-PYRIDINE DERIVATIVES AS ACTIVATORS OF AMPK” (GLAXOSMITHKLINE LLC, priority 2009, published 2012).

Tested on: ob/ob and db/db mice
Conditions: 8 day administration

## NC(=O)c1ncn([C@@H]2O[C@H](CO)[C@@H](O)[C@H]2O)c1N [AICAR]
  reduction of blood glucose: 35%
